From paper PMC6129397 (Xenobiotica; the fate of foreign compounds in biological …, 2017)
Where two headings read alike, the source gives them in different places.

Legend:
[1] = biological target: T1, glucocorticoid receptor (GR) (Homo sapiens, UniProt P04150); assay: Glucocorticoid receptor; format: cell-based
T1 sequence (P04150 1-777): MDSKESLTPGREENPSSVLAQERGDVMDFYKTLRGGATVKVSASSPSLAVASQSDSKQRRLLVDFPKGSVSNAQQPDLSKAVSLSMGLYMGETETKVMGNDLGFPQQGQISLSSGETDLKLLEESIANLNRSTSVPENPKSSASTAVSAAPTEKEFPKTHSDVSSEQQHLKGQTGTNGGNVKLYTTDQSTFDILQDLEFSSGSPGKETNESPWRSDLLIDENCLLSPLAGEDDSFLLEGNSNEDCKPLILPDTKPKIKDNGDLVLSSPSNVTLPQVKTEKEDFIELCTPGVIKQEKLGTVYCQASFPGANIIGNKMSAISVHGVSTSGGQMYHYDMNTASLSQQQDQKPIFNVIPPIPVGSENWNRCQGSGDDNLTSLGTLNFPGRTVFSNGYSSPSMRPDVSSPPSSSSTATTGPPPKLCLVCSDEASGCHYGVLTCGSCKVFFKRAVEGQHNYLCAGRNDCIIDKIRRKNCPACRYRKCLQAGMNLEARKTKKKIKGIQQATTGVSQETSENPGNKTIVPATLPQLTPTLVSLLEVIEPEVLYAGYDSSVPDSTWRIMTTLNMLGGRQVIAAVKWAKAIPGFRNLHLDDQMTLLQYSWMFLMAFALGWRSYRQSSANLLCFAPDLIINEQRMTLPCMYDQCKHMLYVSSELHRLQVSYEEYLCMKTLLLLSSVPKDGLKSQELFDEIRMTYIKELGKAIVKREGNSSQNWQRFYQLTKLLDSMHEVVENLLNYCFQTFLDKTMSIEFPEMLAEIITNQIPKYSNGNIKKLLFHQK

[2] = test system: human liver microsomes (HLM); assay: Oxidation-glucuronidation assay with HLMs; format: in vitro ADME
[3] = biological target: T2, progesterone receptor (PR) (Homo sapiens, UniProt P06401); assay: Progesterone receptor; format: cell-based
T2 sequence (P06401 1-933): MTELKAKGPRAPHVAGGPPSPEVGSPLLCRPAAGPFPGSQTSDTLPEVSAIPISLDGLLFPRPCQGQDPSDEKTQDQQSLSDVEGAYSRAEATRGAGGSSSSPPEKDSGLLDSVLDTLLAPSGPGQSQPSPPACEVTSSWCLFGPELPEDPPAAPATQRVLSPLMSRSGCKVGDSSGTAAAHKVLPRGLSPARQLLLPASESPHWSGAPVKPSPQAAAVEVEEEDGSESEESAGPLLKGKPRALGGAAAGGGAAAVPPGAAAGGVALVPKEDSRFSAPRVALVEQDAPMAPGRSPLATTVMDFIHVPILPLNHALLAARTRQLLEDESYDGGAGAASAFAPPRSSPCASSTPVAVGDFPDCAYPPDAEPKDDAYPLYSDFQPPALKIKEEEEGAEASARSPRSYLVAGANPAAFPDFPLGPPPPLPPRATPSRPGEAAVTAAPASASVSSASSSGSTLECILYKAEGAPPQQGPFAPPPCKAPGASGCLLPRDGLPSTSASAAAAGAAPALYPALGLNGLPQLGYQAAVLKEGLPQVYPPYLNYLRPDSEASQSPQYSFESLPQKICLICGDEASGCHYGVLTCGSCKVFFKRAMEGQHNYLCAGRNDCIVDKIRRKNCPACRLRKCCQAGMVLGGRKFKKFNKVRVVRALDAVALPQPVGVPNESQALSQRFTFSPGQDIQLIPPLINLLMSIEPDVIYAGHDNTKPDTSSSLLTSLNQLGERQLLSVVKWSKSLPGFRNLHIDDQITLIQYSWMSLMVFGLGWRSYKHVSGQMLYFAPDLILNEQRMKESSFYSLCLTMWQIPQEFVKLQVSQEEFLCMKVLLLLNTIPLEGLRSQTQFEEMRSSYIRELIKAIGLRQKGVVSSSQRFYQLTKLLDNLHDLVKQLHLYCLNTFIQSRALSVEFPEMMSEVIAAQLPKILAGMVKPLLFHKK

[4] = T47D cells, 8 h, 10 nM, versus ethanol

C[C@@H]1C[C@H]2[C@@H]3CCC4=CC(=O)C=C[C@]4(C)[C@@]3(F)[C@@H](O)C[C@]2(C)[C@@]1(O)C(=O)CO [Dexamethasone, dexamethasone]
average mRNA fold change GILZ ([1]; MDA-MB-231 cells, 4 h, 0.1 μM): 18.5 fold change
average mRNA fold change SGK1 ([1]; MDA-MB-231 cells, 4 h, 0.1 μM): 5.6 fold change

CC(=O)O[C@]1(C(C)=O)CC[C@H]2[C@@H]3C=C(C)C4=CC(=O)CC[C@]4(C)[C@H]3CC[C@@]21C [MA, Megestrol acetate]
glucuronide formation by HLM ([2]; UDPGA alone (data not shown)): does not form any glucuronides
glucuronide formation by HLM ([2]; co-incubation with both NADPH and UDPGA, 24 hrs): two glucuronides were detected
pharmacologic activity on the PR ([3]; in words): significant pharmacologic activity
activity on the GR ([1]; in words): showed activity

CCC(=O)[C@@]1(C)CC[C@H]2[C@@H]3CCC4=CC(=O)CCC4=C3CC[C@@]21C [Metabolite R5020]
average mRNA fold change E2F1 [3, 4]: 4.8 ± 0.4 fold change
average mRNA fold change FKBP5 [3, 4]: 9.5 ± 0.3 fold change
average mRNA fold change GREB1 [3, 4]: 2.2 ± 0.1 fold change

CC(=O)N1CCN(c2ccc(OCC3COC(Cn4ccnc4)(c4ccc(Cl)cc4Cl)O3)cc2)CC1 (centres unmarked) [ketoconazole]
inhibition of M1 (HLMs; 28 μM MA, ketoconazole 1 μM): 96.2%
inhibition of M2 (HLMs; 28 μM MA, ketoconazole 1 μM): 100%
inhibition of M1 (HLMs; 62 μM MA, ketoconazole 1 μM): 100%
inhibition of M2 (HLMs; 62 μM MA, ketoconazole 1 μM): 100%

CO[C@H]1C[C@H](O[C@H]2[C@H](C)[C@@H](O[C@@H]3O[C@H](C)C[C@H](N(C)C)[C@H]3OC(C)=O)[C@@H](C)C[C@@]3(CO3)C(=O)[C@H](C)[C@@H](OC(C)=O)[C@@H](C)[C@@H](C)OC(=O)[C@@H]2C)O[C@@H](C)[C@@H]1OC(C)=O [troleandomycin]
inhibition of M1 (HLMs; 28 μM MA, troleandomycin 50 μM): 93.2%
inhibition of M2 (HLMs; 28 μM MA, troleandomycin 50 μM): 100%
inhibition of M1 (HLMs; 62 μM MA, troleandomycin 50 μM): 94.4%
inhibition of M2 (HLMs; 62 μM MA, troleandomycin 50 μM): 100%
